Values quoted from earlier work, collected in paper PMC4844938 (Molecules and Cells, 2016).

Test system: RANKL
Settings: ref Ta et al., 2010

For “1-YC WNSDCECCYRR-13 (bicyclic or more) [L3-3]”, the “affinity for RANKL relative to OP3-4” value (previous work) is given as “higher affinity for RANKL as compared to OP3-4” and the Kd (read-out: Kd for RANKL, reported in previous work) is given as 17.3 µM.
